These results are taken from US10526336B2, “Fused heteroaryl derivatives as orexin receptor antagonists” (Merck Sharp & Dohme Corp., priority 2014, dated 2020).

Usually IC50 stands for the concentration that inhibits the measured activity by half.

This experiment has as its target human orexin-2 receptor (Homo sapiens (Human), UniProt O43614). Description: FLIPR Ca2+ Flux Assay, orexin-2 receptor antagonism in CHO cells. Format: cell-based. The settings on record: CHO cells expressing the human orexin-2 receptor; agonist 70 pM Ala-6,12 orexin-A; read-out: hOX2 FLIPR IC50. In outline:
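CHO cells expressing rat OX1R or human OX2R, Fluo-4AM loaded, given compounds for 5 min, then challenged with 70 pM Ala-6,12 human orexin-A in HBSS/HEPES/BSA/probenecid, pH 7.4. FLIPR calcium fluorescence recorded 5 min; peak height versus agonist-alone gives IC50.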
In general terms: Calcium assays in cells follow changes in intracellular calcium, usually with a dye or a luminescent sensor.

Sequence of human orexin-2 receptor (O43614 whole entry): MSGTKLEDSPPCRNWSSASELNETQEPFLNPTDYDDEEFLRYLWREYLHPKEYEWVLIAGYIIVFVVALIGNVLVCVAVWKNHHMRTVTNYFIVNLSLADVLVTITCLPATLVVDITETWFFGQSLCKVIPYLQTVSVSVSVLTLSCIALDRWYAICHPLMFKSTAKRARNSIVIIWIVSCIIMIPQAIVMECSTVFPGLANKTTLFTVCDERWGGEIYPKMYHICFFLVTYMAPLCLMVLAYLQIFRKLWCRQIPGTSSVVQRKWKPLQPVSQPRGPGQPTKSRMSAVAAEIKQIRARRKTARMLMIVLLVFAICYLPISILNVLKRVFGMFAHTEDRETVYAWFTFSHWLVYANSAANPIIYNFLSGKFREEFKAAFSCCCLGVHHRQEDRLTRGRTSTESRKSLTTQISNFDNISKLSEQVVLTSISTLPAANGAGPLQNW

As to `C[C@@H]1CC[C@@H](Oc2nccn3c(C(F)(F)F)cnc23)CN1C(=O)c1cccnc1OCC(F)F` [Example 64, (2-(2,2-difluoroethoxy)pyridin-3-yl)((2R,5R)-2-methyl-5-((3-(trifluoromethyl)imidazo [1,2-α]pyrazin-8-yl)oxy)piperidin-1-yl)methanone], the IC50 came out at 17.4 nM.
The same measure for `Cc1cnn2ccnc(O[C@@H]3CC[C@@H](C)N(C(=O)c4ccccc4-n4nccn4)C3)c12` [Example 89, (2-(2H-1,2,3-triazol-2-yl)phenyl)((2R,5R)-2-methyl-5-((3-methylpyrazolo[1,5-a]pyrazin-4-yl)oxy)piperidin-1-yl)methanone]: 19.2 nM.
The same measure for `Cc1cn2ccnc(O[C@@H]3CC[C@@H](C)N(C(=O)c4cscc4-n4nccn4)C3)c2n1` [Example 8, (4-(2H-1,2,3-triazol-2-yl)thiophen-3-yl)((2R,5R)-2-methyl-5-((2-methylimidazo[1,2-α]pyrazin-8-yl)oxy)piperidin-1-yl)methanone]: 39.1 nM.
Consider `C[C@@H]1CC[C@@H](Sc2nccn3ccnc23)CN1C(=O)c1ccccc1-n1nccn1` [Example 5, (2-(2H-1,2,3-triazol-2-yl)phenyl)((2R,5R)-5-(imidazo[1,2-a]pyrazin-8-ylthio)-2-methylpiperidin-1-yl)methanone], for which the IC50 was 10.3 nM.
Turning to `C[C@@H]1CC[C@@H](Oc2nccc3c2ncn3C)CN1C(=O)c1ccccc1-n1nccn1` [Example 98, (2-(2H-1,2,3-triazol-2-yl)phenyl)((2R,5R)-2-methyl-5-((1-methyl-1H-imidazo[4,5-c]pyridin-4-yl)oxy)piperidin-1-yl)methanone], the half-inhibitory concentration (IC50) was 28.8 nM.
The result for `C[C@@H]1CC[C@@H](Nc2nccc3c2ncn3C)CN1C(=O)c1ccccc1-n1nccn1` [Example 101, (2-(2H-1,2,3-triazol-2-yl)phenyl)((2R,5R)-2-methyl-5-((1-methyl-1H-imidazo[4,5-c]pyridin-4-yl)amino)piperidin-1-yl)methanone] reads 38.5 nM; that for `COC(=O)c1ccccc1C(=O)N1C[C@H](Oc2nccn3c(C(F)F)cnc23)CC[C@H]1C` [Example 48, methyl 2-((2R,5R)-5-((3-(difluoromethyl)imidazo[1,2-α]pyrazin-8-yl)oxy)-2-methylpiperidine-1-carbonyl)benzoate], 24.9 nM.
On to `C[C@@H]1CC[C@@H](Oc2nccn3ccnc23)CN1C(=O)c1ccccc1CS(C)(=O)=O` [Example 77, ((2R,5R)-5-(imidazo[1,2-α]pyrazin-8-yloxy)-2-methylpiperidin-1-yl)(2-((methylsulfonyl)methyl)phenyl) methanone], for which the half-inhibitory concentration (IC50) stood at 27.9 nM.
For `C[C@@H]1CC[C@@H](Oc2nccn3nccc23)CN1C(=O)c1nccnc1-c1ccccn1` [Example 78, ((2R,5R)-2-methyl-5-(pyrazolo[1,5-α]pyrazin-4-yloxy)piperidin-1-yl)(3-(pyridin-2-yl)pyrazin-2-yl)methanone], the concentration for half-maximal inhibition (IC50) amounted to 59.1 nM.
Take `C[C@@H]1CC[C@@H](Oc2nccn3c(C(F)(F)F)cnc23)CN1C(=O)c1ccccc1-n1ncnn1` [Example 60, (2-(2H-tetrazol-2-yl)phenyl)((2R,5R)-2-methyl-5-((3-(trifluoromethyl)imidazo [1,2-α]pyrazin-8-yl)oxy)piperidin-1-yl)methanone]: the IC50 is 19 nM.
On to `C[C@@H]1CC[C@@H](Oc2nccn3c(Br)cnc23)CN1C(=O)c1ccccc1-n1nccn1` [Example 33, (2-(2H-1,2,3-triazol-2-yl)phenyl)((2R,5R)-5-((3-bromoimidazo[1,2-a]pyrazin-8-yl)oxy)-2-methylpiperidin-1-yl)methanone], for which the IC50 worked out at 8.9 nM.
In the case of `C[C@@H]1CC[C@@H](Oc2nccn3c(C(F)F)cnc23)CN1C(=O)c1ccsc1-n1nccn1` [Example 40, (2-(2H-1,2,3-triazol-2-yl)thiophen-3-yl)((2R,5R)-5-((3-(difluoromethyl)imidazo[1,2-α]pyrazin-8-yl)oxy)-2-methylpiperidin-1-yl)methanone], the IC50 came to 10.5 nM.
Regarding `CCCc1ccccc1C(=O)N1C[C@H](Oc2nccn3ccnc23)CC[C@H]1C` [Example 4, ((2R,5R)-5-(imidazo[1,2-a]pyrazin-8-yloxy)-2-methylpiperidin-1-yl)(2-propylphenyl)methanone], the IC50 is 31.9 nM.
As to `C[C@@H]1CC[C@@H](Oc2nccn3c(F)cnc23)CN1C(=O)c1ccccc1-n1nccn1` [Example 32, (2-(2H-1,2,3-triazol-2-yl)phenyl)((2R,5R)-5-((3-fluoroimidazo[1,2-a]pyrazin-8-yl)oxy)-2-methylpiperidin-1-yl)methanone], the IC50 amounted to 12.6 nM.
As for `COCc1ccccc1C(=O)N1C[C@H](Oc2nccn3c(C(F)F)cnc23)CC[C@H]1C` [Example 45, ((2R,5R)-5-((3-(difluoromethyl)imidazo[1,2-α]pyrazin-8-yl)oxy)-2-methylpiperidin-1-yl)(2-(methoxymethyl)phenyl)methanone], the IC50 is 108 nM.
As to `C[C@@H]1CC[C@@H](Oc2nccn3nccc23)CN1C(=O)c1ccccc1-n1nccn1` [Example 69, (2-(2H-1,2,3-triazol-2-yl)phenyl)((2R,5R)-2-methyl-5-(pyrazolo[1,5-a]pyrazin-4-yloxy)piperidin-1-yl)methanone], the IC50 came out at 26.8 nM.
As for `COC(=O)c1ccccc1C(=O)N1C[C@H](Oc2ccnc3ocnc23)CC[C@H]1C` [Example 93, methyl 2-((2R,5R)-2-methyl-5-(oxazolo[5,4-b]pyridin-7-yloxy)piperidine-1-carbonyl)benzoate], the IC50 is 46.4 nM.
In the case of `C[C@@H]1CC[C@@H](Oc2nccn3c(C(F)F)cnc23)CN1C(=O)c1ccccc1-c1ncccn1` [Example 54, ((2R,5R)-5-((3-(difluoromethyl)imidazo[1,2-a]pyrazin-8-yl)oxy)-2-methylpiperidin-1-yl)(2-(pyrimidin-2-yl)phenyl)methanone], the IC50 came out at 24.1 nM.
On to `C[C@@H]1CC[C@@H](Oc2nccn3c(C(F)(F)F)cnc23)CN1C(=O)c1ccsc1-n1nccn1` [Example 58, (2-(2H-1,2,3-triazol-2-yl)thiophen-3-yl)((2R,5R)-2-methyl-5-((3-(trifluoromethyl)imidazo[1,2-a]pyrazin-8-yl)oxy)piperidin-1-yl)methanone], for which the IC50 is 20.4 nM.
The result for `C[C@@H]1CC[C@@H](Oc2nccn3c(C#N)cnc23)CN1C(=O)c1ccccc1-n1nccn1` [Example 35, 8-(((3R,6R)-1-(2-(2H-1,2,3-triazol-2-yl)benzoyl)-6-methylpiperidin-3-yl)oxy)imidazo[1,2-a]pyrazine-3-carbonitrile] reads 73.7 nM.
As for `C[C@@H]1CC[C@@H](Oc2nccn3ccnc23)CN1C(=O)c1ccccc1CS(C)(=O)=O` [Example 2, ((2R,5R)-5-(imidazo[1,2-a]pyrazin-8-yloxy)-2-methylpiperidin-1-yl)(2-((methylsulfonyl)methyl)phenyl)methanone], the IC50 was 59 nM.
Consider `Cc1nc2ccnc(N[C@@H]3CC[C@@H](C)N(C(=O)c4ccccc4-n4nccn4)C3)n2n1` [Example 105, (2-(2H-1,2,3-triazol-2-yl)phenyl)((2R,5R)-2-methyl-5-((2-methyl-[1,2,4]triazolo[1,5-c]pyrimidin-5-yl)amino)piperidin-1-yl)methanone], for which the IC50 was 27.6 nM.
